# Reference: US5563155A, “Individual stereosiomers of 7-[3-(aminoalkyl)-1-pyrrolidinyl]-quinolones and naphthyridones as antibacterial agents” (Warner-Lambert Company, priority 1995, dated 1996)
# Counter-ions that a name gives are not always drawn. Like-named read-outs stand apart in the source and are kept apart here.
# Key:
# [1] = system: Ent. cloacae MA2646; test: in vitro antibacterial activity, microtitration dilution (MIC), Ent. cloacae MA2646; format: cell-based; conditions: Enterobacter cloacae, read-out: minimum inhibiting concentration (MIC)
# Source text: (§1) The in vitro antibacterial activity, is obtained by the microtitration dilution method as described in Heifetz, et al., Antimicr. Agents & Chemother., 6, 124 (1974), which is incorporated herein by reference.
# (§2) By use of the above methods, the following minimum inhibiting concentration values (MICs in μg/mL), PD50 's in mg/kg, no effect phototoxicity dose in mg/kg and the cytotoxicity IC50 in μg/mL were obtained for representative enantiomers of the invention and compounds of the prior art as shown in the table.
# [2] = system: Prot. rettgeri M 1771; test: in vitro antibacterial activity, microtitration dilution (MIC), Prot. rettgeri M 1771; format: cell-based; conditions: Providencia rettgeri, M1771, read-out: minimum inhibiting concentration (MIC)
# Source text: as §1, §2
# [3] = system: Strep. pyogenes C-203; test: in vitro antibacterial activity, microtitration dilution (MIC), Strep. pyogenes C-203; format: cell-based; conditions: Streptococcus pyogenes, C203, read-out: minimum inhibiting concentration (MIC)
# Source text: as §1, §2
# [4] = system: Pseud. aeruginosa UI-18; test: in vitro antibacterial activity, microtitration dilution (MIC), Pseud. aeruginosa UI-18; format: cell-based; conditions: Pseudomonas aeruginosa, UI18, read-out: minimum inhibiting concentration (MIC)
# Source text: as §1, §2
# [5] = system: Klebs. pneumoniae MGH-2; test: in vitro antibacterial activity, microtitration dilution (MIC), Klebs. pneumoniae MGH-2; format: cell-based; conditions: Klebsiella pneumoniae, MGH2, read-out: minimum inhibiting concentration (MIC)
# Source text: as §1, §2
# [6] = system: Staph. aureus H 228; test: in vitro antibacterial activity, microtitration dilution (MIC), Staph. aureus H 228; format: cell-based; conditions: Staphylococcus aureus, H228, read-out: minimum inhibiting concentration (MIC)
# Source text: as §1, §2
# [7] = system: Staph. aureus UC-76; test: in vitro antibacterial activity, microtitration dilution (MIC), Staph. aureus UC-76; format: cell-based; conditions: Staphylococcus aureus, UC76, read-out: minimum inhibiting concentration (MIC)
# Source text: as §1, §2
# [8] = system: Esch. coli Vogel; test: in vitro antibacterial activity, microtitration dilution (MIC), Esch. coli Vogel; format: cell-based; conditions: Escherichia coli, read-out: minimum inhibiting concentration (MIC)
# Source text: as §1, §2
# [9] = system: Strep. pheumoniae SV-1; test: in vitro antibacterial activity, microtitration dilution (MIC), Strep. pneumoniae SV-1; format: cell-based; conditions: Streptococcus pneumoniae, SV1, read-out: minimum inhibiting concentration (MIC)
# Source text: as §1, §2
# [10] = system: Strep. faecalis MGH-2; test: in vitro antibacterial activity, microtitration dilution (MIC), Strep. faecalis MGH-2; format: cell-based; conditions: Enterococcus faecalis, MGH2, read-out: minimum inhibiting concentration (MIC)
# Source text: as §1, §2
# [11] = system: Strep. pyogenes C-203; test: median protective dose in mice given lethal systemic infections, Strep. pyogenes C-203; format: in vivo; conditions: Streptococcus pyogenes, single dose at time of challenge, read-out: median protective dose (PD50)
# Experimental: The in vivo activity is obtained when the compounds are tested according to the procedure of Miller, et al (Proc. Soc. Exp. Biol. Med. 57, 261, 1944). The median protective dose (PD50) was determined in mice given lethal systemic infections. Single doses of compound were given at time of challenge.
# as §2
# The in vivo data as PD50 s are reported below the line of MICs for the same compound.
SMILES,MIC [1] [µg/mL],MIC [2] [µg/mL],MIC [3] [µg/mL],MIC [4] [µg/mL],MIC [5] [µg/mL],MIC [6] [µg/mL],MIC [7] [µg/mL],MIC [8] [µg/mL],MIC [9] [µg/mL],MIC [10] [µg/mL],"ED50 ([11]; C203, PO) [mg/kg]","ED50 ([11]; C203, SC) [mg/kg]"
"CN[C@H](C)[C@H]1CCN(c2c(F)c(N)c3c(=O)c(C(=O)O)cn(C4CC4)c3c2F)C1 [Example 34, 3S,1R-5-amino-1-cyclopropyl-6,8-difluoro-7-[3-(1-N-methylaminoethyl)-1-pyrrolidinyl]-1,4-dihydro-4-oxo-3-quinolinecarboxylic acid]",0.4,1.6,1.6,3.1,0.8,0.8,0.4,0.4,0.8,1.6,,
"CN[C@@H](C)[C@@H]1CCN(c2cc3c(c(C)c2F)c(=O)c(C(=O)O)cn3C2CC2)C1 [Example 67, 3R,1S-1-cyclopropyl-6-fluoro-1,4-dihydro-5-methyl-7-[3-[1-(methylamino)ethyl]-1-pyrrolidinyl]-4-oxo-3-quinolinecarboxylic acid, monohydrochloride]",0.4,1.6,0.025,3.1,0.8,0.05,0.013,,0.013,0.1,29,3
"CN[C@@H](C)[C@H]1CCN(c2c(F)c(N)c3c(=O)c(C(=O)O)cn(C4CC4)c3c2F)C1 [Example 35, 3S,1S-5-amino-1-cyclopropyl-6,8-difluoro-7-[3-(1-N-methylaminoethyl)-1-pyrrolidinyl]-1,4-dihydro-4-oxo-3-quinolinecarboxylic acid]",0.2,0.8,0.2,3.1,0.8,0.1,0.05,0.2,0.2,0.2,,
"COc1c(N2CC[C@@H]([C@H](C)N)C2)c(F)cc2c(=O)c(C(=O)O)cn(C3CC3)c12 [Example 44, 3R,1S-7-[3-(1-aminoethyl)-1-pyrrolidinyl]-1-cyclopropyl-6-fluoro-1,4-dihydro-8-methoxy-4-oxo-3-quinolinecarboxylic acid]",0.05,0.05,≤ 0.003,0.4,0.05,0.006,≤ 0.003,0.025,≤ 0.003,0.006,,
"Cc1c(F)c(N2CC[C@@H]([C@H](C)N)C2)cc2c1c(=O)c(C(=O)O)cn2C1CC1 [Example 47, 3R,1S-7-[3-(1-aminoethyl)-1-pyrrolidinyl]-1-cyclopropyl-6-fluoro-1,4-dihydro-5-methyl-4-oxo-3-quinolinecarboxylic acid]",0.1,0.2,0.003,0.8,0.1,0.025,0.003,0.1,0.003,0.025,,
"CCN[C@H](C)[C@H]1CCN(c2c(F)cc3c(=O)c(C(=O)O)cn(C4CC4)c3c2OC)C1 [Example 19, 3S,1R-1-cyclopropyl-6-fluoro-7-[3-(1-N-ethylaminoethyl)1-pyrrolidinyl]-8-methoxy-1,4-dihydro-4-oxo-3-quinolinecarboxylic acid]",0.4,1.6,0.025,6.3,0.8,0.1,0.05,0.4,0.013,0.1,,

# The next lines start with results.
MIC [1] [µg/mL],MIC [2] [µg/mL],MIC [3] [µg/mL],MIC [4] [µg/mL],MIC [5] [µg/mL],MIC [6] [µg/mL],MIC [7] [µg/mL],MIC [8] [µg/mL],MIC [9] [µg/mL],MIC [10] [µg/mL],SMILES,"ED50 ([11]; C203, PO) [mg/kg]","ED50 ([11]; C203, SC) [mg/kg]"
0.1,0.4,≤ 0.003,1.6,0.2,0.006,≤ 0.003,0.1,≤ 0.003,0.025,"CN[C@@H](C)[C@@H]1CCN(c2c(F)c(C)c3c(=O)c(C(=O)O)cn(C4CC4)c3c2OC)C1 [Example 61, 3R,1S-1-cyclopropyl-6-fluoro-7-[3-(1-N-methylaminoethyl)-1-pyrrolidinyl]-5-methyl-8-methoxy-1,4-dihydro-4-oxo-3-quinolinecarboxylic acid]",,
0.4,0.8,0.2,3.1,0.4,0.1,0.05,0.4,0.2,0.2,CN[C@H](C)[C@@H]1CCN(c2cc3c(c(C)c2F)c(=O)c(C(=O)O)cn3-c2ccc(F)cc2F)C1 [Example 63],,
0.2,0.4,0.006,1.6,0.2,0.013,0.006,0.1,0.006,0.025,"CN[C@@H](C)[C@@H]1CCN(c2c(F)c(N)c3c(=O)c(C(=O)O)cn(C4CC4)c3c2OC)C1 [Example 56, 3R,1S-5-amino-1-cyclopropyl-6-fluoro-1,4-dihydro-8-methoxy-7-[3-(1-N-methylaminoethyl)-1-pyrrolidinyl]-4-oxo-3-quinolinecarboxylic acid]",,
0.2,0.2,0.006,1.6,0.2,0.013,≤ 0.003,0.1,0.006,0.025,"CCOc1c(N2CC[C@@H]([C@H](C)N)C2)c(F)cc2c(=O)c(C(=O)O)cn(C3CC3)c12 [Example 49, 3R,1S-7-[3-(1-aminoethyl)-1-pyrrolidinyl]-1-cyclopropyl-8-ethoxy-6-fluoro-1,4-dihydro-4-oxo-3-quinolinecarboxylic acid]",,
0.4,1.6,0.013,3.1,0.8,0.025,0.013,0.4,0.013,0.1,"CCN[C@@H](C)[C@@H]1CCN(c2cc3c(c(C)c2F)c(=O)c(C(=O)O)cn3-c2ccc(F)cc2F)C1 [Example 54, 3R,1S-7-[3-(1-N-ethylaminoethyl)-1-pyrrolidinyl]-1-(2,4-difluorophenyl)-6-fluoro-1,4-dihydro-5-methyl-4-oxo-3-quinolinecarboxylic acid]",,
0.4,1.6,0.05,3.1,0.4,0.05,0.013,0.4,0.05,0.05,"CCN[C@@H](C)[C@@H]1CCN(c2cc3c(c(C)c2F)c(=O)c(C(=O)O)cn3C2CC2)C1 [Example 52, 3R,1S-1-cyclopropyl-7-[3-(1-N-ethylaminoethyl)-1-pyrrolidinyl]-6-fluoro-1,4-dihydro-5-methyl-4-oxo-3-quinolinecarboxylic acid]",,
